The results in this text go back to US20070244108A1 (priority 2004, published 2007).

One data set concerns the target T1, Human 11β HSD1 (Homo sapiens, UniProt P28845).
T1 construct: human hepatic microsomes were obtained from XenoTech, product H0610/Lot 0210078; tissue XenoTech H0610/Lot 0210078; host or cells: human liver (hepatic microsomes)
Put plainly: 11β HSD1 cortisol radioimmunoassay (RIA), human hepatic microsomes. The data set is classed as biochemical. Particulars: 10 μM compound; typical sd ± 5%, N=2. As for the experimental part: Standard Operating Procedure for the 11β-Hydroxysteroid Dehydrogenase Type 1 cortisol Radioimmunoassay (11β HSD1 Cortisol RIA).
Prepare 10 mM stock solutions in 100% DMSO at 100 times the required assay concentration. Dilute into assay buffer 1 in 25. Also dilute neat DMSO 1 in 25 into assay buffer for controls.
Dilute this 1 in 50 into assay buffer.
Mix these 3 solutions 1:1:1 to make a solution of sufficient volume for 25 μl additions to each sample.
Dilute stock 20 mg/ml solution 1 in 100 with assay buffer.
Dilute stock antibody solution to 17 μg/ml in antibody binding buffer.
To a u-bottom polypropylene 96 well plate add:
25 μl compound dilution or diluted DMSO to controls, NSB's and blanks
10 μl […] in DMSO (enzyme stop solution) to blanks
25 μl substrate mixture to all samples
50 μl diluted microsomes to all samples
Incubate plate for 30 min at 37° C. shaking
Add 10 μl enzyme stop solution to all wells except the blanks
Add 100 μl antibody solution to all wells except the NSB's, add antibody binding buffer to these wells
Incubate at 37° C. for 1 h
Add 50 μl/well charcoal solution and mix with an 8-channel pipette (4-5 aspirations)
Centrifuge at 4° C., 2000×g for 15 min
Transfer 100 μl supernatant into an Optiplate, also add 25 μl substrate mixture to 2 empty wells to indicate counting efficiency
Add 200 μl Microscint-40 to all wells and count on a Topcount
The 11β HSD1 enzyme assay was carried out following the standard operating procedure described above in u-bottom polypropylene 96 well plates or 1.5 ml Eppendorf tubes as indicated for each experiment. Subsequent to stopping the enzyme reaction, 100 μl antibody prepared in buffer 3 unless otherwise indicated was added to test samples and 100 μl buffer 3 was added to the NSB samples. […] Aliquots of the supernatant (100 μl) were transferred to an Optiplate and counted on the Topcount in 150-200 μl Microscint 40. In some experiments, aliquots of supernatant were transferred to scintillation vials and counted on the Tricarb LSC in 5 ml Ultima Gold scintillant.

Where only a bound is given, the exact number is not on record here.

T1 sequence (P28845 whole entry): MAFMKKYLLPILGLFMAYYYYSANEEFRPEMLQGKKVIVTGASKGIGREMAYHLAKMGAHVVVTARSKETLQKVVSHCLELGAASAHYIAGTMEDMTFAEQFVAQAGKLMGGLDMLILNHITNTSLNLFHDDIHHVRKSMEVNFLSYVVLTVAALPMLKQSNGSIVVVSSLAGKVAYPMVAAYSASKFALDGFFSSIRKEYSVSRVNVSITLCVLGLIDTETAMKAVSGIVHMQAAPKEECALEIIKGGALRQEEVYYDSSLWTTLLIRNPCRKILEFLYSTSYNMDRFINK

One may read the melting point as the temperature, or range, at which the solid turns liquid. A word on the inhibition: it is how much of the control response was suppressed. A high value points to a response far below the control. For `CCCc1ccc(S(=O)(=O)NN2CCN(C)CC2)cc1` [STX551, N-(4-Methylpiperazin-1-yl)-4-propylbenzenesulfonamide], the melting point was 153 to 154 °C. This molecule returned an inhibition at 10 µM against Human 11β HSD1 above 35%. As to `CCCc1ccc(S(=O)(=O)NCCc2ncc[nH]2)cc1` [STX578, N-[2-(4H-Imidazol-2-yl)-ethyl]-4-propylbenzenesulfonamide], the inhibition at 10 µM at Human 11β HSD1 was above 35%. Take `CCCc1ccc(S(=O)(=O)NN2CCOCC2)cc1` [STX586, N-Morpholin-4-yl-4-propyl-benzenesulfonamide]: the melting point was 150 to 152 °C. Also, the inhibition at 10 µM against Human 11β HSD1 was above 35%.
